One series concerns the target adenosine A2B receptor (Homo sapiens (Human), UniProt P29275). Description: Adenosine receptor activity assay (Table 1), A2B activity. In kind it is biochemical. Particulars: for Ratio: A2A activity to A2B activity (A2A/A2B); for IC50: read-out: Ave A2B cAMP IC50.
The target of the next series is adenosine A2A receptor (Homo sapiens (Human), UniProt P29274). Description: Adenosine receptor activity assay (Table 1), A2A activity. Type of series: biochemical. As to conditions: read-out: Ave A2A cAMP IC50.
Sequence of adenosine A2A receptor (P29274 whole entry): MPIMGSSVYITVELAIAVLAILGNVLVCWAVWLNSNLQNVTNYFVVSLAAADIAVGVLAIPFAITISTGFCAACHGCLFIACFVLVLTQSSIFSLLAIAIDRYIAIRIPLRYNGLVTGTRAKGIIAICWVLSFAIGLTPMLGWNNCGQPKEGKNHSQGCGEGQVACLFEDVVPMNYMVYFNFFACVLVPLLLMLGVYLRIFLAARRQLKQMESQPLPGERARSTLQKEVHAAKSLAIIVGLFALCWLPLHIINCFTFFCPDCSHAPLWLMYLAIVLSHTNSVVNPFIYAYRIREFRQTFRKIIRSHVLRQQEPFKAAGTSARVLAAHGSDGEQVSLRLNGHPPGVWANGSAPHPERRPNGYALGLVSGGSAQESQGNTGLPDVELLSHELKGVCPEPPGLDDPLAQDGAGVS
The next series has as its target adenosine A1 receptor (Homo sapiens (Human), UniProt P30542). Description: A1 cAMP IC50 assay (Table 1). Type of series: biochemical.
For another series, the target named is adenosine A3 receptor (Homo sapiens (Human), UniProt P0DMS8). Kind of series: A3 cAMP IC50 assay (Table 1). In kind it is biochemical.
Sequence of adenosine A3 receptor (P0DMS8 whole entry): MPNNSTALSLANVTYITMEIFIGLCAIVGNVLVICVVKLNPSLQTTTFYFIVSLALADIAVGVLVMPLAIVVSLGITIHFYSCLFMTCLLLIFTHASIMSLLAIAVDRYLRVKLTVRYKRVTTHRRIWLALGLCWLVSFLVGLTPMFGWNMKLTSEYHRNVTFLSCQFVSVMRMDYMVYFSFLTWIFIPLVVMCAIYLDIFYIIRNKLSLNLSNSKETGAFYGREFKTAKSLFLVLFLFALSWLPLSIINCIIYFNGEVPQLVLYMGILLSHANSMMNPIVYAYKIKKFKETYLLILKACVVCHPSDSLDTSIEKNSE
Series [1] can be described thus: Hepatocyte (Hep) intrinsic clearance, rat. In kind it is in vitro ADME. Particulars: hepatocytes.
Series [2] is described as follows: Hepatocyte (Hep) intrinsic clearance, human. Type of series: in vitro ADME. Particulars: hepatocytes.

Among the data in patent US11254686B1 (Corvus Pharmaceuticals, Inc., priority 2017, dated 2022) are Ratio, IC50 and hepatocyte CLint values, retold here.

One may read the IC50 as the concentration that inhibits the measured activity by half. By hepatocyte CLint is commonly meant the rate of metabolic loss divided by the concentration.

Sequence of adenosine A2B receptor (P29275 whole entry): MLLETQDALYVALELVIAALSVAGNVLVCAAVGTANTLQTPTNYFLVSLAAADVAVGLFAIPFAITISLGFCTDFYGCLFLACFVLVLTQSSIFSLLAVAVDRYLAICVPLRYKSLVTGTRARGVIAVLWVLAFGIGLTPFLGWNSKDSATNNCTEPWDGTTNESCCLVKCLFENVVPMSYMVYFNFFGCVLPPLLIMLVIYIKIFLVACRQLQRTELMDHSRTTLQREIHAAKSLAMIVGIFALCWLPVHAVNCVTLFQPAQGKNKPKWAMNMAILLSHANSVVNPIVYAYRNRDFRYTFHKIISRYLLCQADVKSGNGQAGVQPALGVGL
Sequence of adenosine A1 receptor (P30542 whole entry): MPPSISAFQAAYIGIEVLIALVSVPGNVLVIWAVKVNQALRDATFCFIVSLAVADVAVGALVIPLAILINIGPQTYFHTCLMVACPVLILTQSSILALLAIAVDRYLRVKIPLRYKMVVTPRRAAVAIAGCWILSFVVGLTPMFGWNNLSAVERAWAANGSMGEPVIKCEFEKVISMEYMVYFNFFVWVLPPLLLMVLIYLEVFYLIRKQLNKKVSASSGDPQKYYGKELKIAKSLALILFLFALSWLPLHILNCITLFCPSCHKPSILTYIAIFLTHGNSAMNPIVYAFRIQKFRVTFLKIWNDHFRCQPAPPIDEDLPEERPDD

In the case of `C[C@H](Nc1nc(C(=O)N2CC[C@@H](O)C2)c2sccc2n1)c1cncc(F)c1` [Example Z166, (2-(((S)-1-(5-Fluoropyridin-3-yl)ethyl)amino)thieno[3,2-d]pyrimidin-4-yl)((R)-3-hydroxypyrrolidin-1-yl)methanone], the Ratio at adenosine A2B receptor is listed as 62.32. Besides, the IC50 was 10 to 50 nM on adenosine A2B receptor, greater than 500 nM on adenosine A2A receptor, greater than 500 nM against adenosine A1 receptor and greater than 500 nM at adenosine A3 receptor. In addition, the hepatocyte CLint in series [1] was found to be 16.6 µL/min/1e6 cells; in series [2] it was 4.51 µL/min/1e6 cells.
For `C[C@H](Nc1nc(C(=O)NC[C@@H](C)O)c2sccc2n1)c1cncc(F)c1` [Example Z190, 2-(((S)-1-(5-Fluoropyridin-3-yl)ethyl)amino)-N—((R)-2-hydroxypropyl)thieno[3,2-d]pyrimidine-4-carboxamide], on adenosine A2B receptor, the Ratio turned out to be 34.96. In addition, the IC50 is less than 10 nM on adenosine A2B receptor, 50 to 100 nM on adenosine A2A receptor, greater than 500 nM against adenosine A1 receptor and greater than 500 nM at adenosine A3 receptor. Further, the hepatocyte CLint in series [1] amounted to 23.7 µL/min/1e6 cells; in series [2] it was 10.1 µL/min/1e6 cells.
As for `CNc1cc2nc(N[C@@H](C)c3cncc(F)c3)nc(C(=O)N3CC[C@H](O)C3)c2s1` [Example Z197, (2-(((S)-1-(5-Fluoropyridin-3-yl)ethyl)amino)-6-(methylamino)thieno[3,2-d]pyrimidin-4-yl)((S)-3-hydroxypyrrolidin-1-yl)methanone], at adenosine A2B receptor, the Ratio was found to be 298.42. Also, the IC50 is less than 10 nM on adenosine A2B receptor, greater than 500 nM on adenosine A2A receptor, greater than 500 nM on adenosine A1 receptor and greater than 500 nM on adenosine A3 receptor. Further, the hepatocyte CLint came to 16.2 µL/min/1e6 cells in series [1] and 3.34 µL/min/1e6 cells in series [2].
On to `O=C(NC1CC(O)C1)c1nc(NCc2cncc(F)c2)nc2ccsc12` (centres unmarked) [Example Z183, 2-(((5-Fluoropyridin-3-yl)methyl)amino)-N-((1s,3s)-3-hydroxycyclobutyl)thieno[3,2-d]pyrimidine-4-carboxamide], for which the Ratio at adenosine A2B receptor came out at 37.09. For the same compound, the IC50 is less than 10 nM at adenosine A2B receptor, 100 to 500 nM on adenosine A2A receptor, greater than 500 nM on adenosine A1 receptor and greater than 500 nM on adenosine A3 receptor. The results for the hepatocyte CLint in series [1] and in series [2] were 23.7 µL/min/1e6 cells and 24.9 µL/min/1e6 cells, respectively.
`CNc1cc2nc(N[C@@H](C)c3cccnc3)nc(C(=O)N3CCCC3)c2s1` [Example Z152, (S)-(6-(Methylamino)-2-((1-(pyridin-3-yl)ethyl)amino)thieno[3,2-d]pyrimidin-4-yl)(pyrrolidin-1-yl)methanone]: the Ratio at adenosine A2B receptor is listed as 53.70. For the same compound, the IC50 at adenosine A2B receptor was less than 10 nM; on adenosine A2A receptor, 100 to 500 nM; against adenosine A1 receptor, greater than 500 nM; against adenosine A3 receptor, 50 to 100 nM. For the same compound, the hepatocyte CLint in series [1] amounted to 38.3 µL/min/1e6 cells; in series [2], 12.3 µL/min/1e6 cells.
For `CNc1cc2nc(N[C@@H](C)c3cccnc3)nc(C(=O)N3CC[C@H](O)C3)c2s1` [Example Z188, ((S)-3-Hydroxypyrrolidin-1-yl)(6-(methylamino)-2-(((S)-1-(pyridin-3-yl)ethyl)amino)thieno[3,2-d]pyrimidin-4-yl)methanone], the Ratio on adenosine A2B receptor is reported as 114.79. Moreover, the IC50 was 10 to 50 nM on adenosine A2B receptor, greater than 500 nM at adenosine A2A receptor, greater than 500 nM on adenosine A1 receptor and greater than 500 nM at adenosine A3 receptor. For the same compound, the values for the hepatocyte CLint in series [1] and in series [2] were 10 µL/min/1e6 cells and 2.16 µL/min/1e6 cells, respectively.
Consider `C[C@H](O)CNC(=O)c1nc(N[C@@H](C)c2cncc(F)c2)nc2ccsc12` [Example Z191, 2-(((S)-1-(5-Fluoropyridin-3-yl)ethyl)amino)-N—((S)-2-hydroxypropyl)thieno[3,2-d]pyrimidine-4-carboxamide], for which the Ratio at adenosine A2B receptor is given as 45.25. The IC50 on adenosine A2B receptor is less than 10 nM; on adenosine A2A receptor, 100 to 500 nM; against adenosine A1 receptor, greater than 500 nM; against adenosine A3 receptor, greater than 500 nM. Further, the values for the hepatocyte CLint in series [1] and in series [2] were 26.7 µL/min/1e6 cells and 10.6 µL/min/1e6 cells, respectively.
Take `C[C@H](Nc1nc(C(=O)N2CCC2)c2sccc2n1)c1cncc(F)c1` [Example Z164, (S)-Azetidin-1-yl(2-((1-(5-fluoropyridin-3-yl)ethyl)amino)thieno[3,2-d]pyrimidin-4-yl)methanone]: the Ratio at adenosine A2B receptor worked out at 49.96. Besides, the IC50 is less than 10 nM at adenosine A2B receptor, 50 to 100 nM at adenosine A2A receptor, greater than 500 nM at adenosine A1 receptor and greater than 500 nM at adenosine A3 receptor. Besides, the intrinsic metabolic clearance (hepatocyte CLint) in series [1] came out at 34 µL/min/1e6 cells; in series [2], 13.5 µL/min/1e6 cells.
Take `COC1CN(C(=O)c2nc(N[C@@H](C)c3cccnc3)nc3ccsc23)C1` [Example Z139, (S)-(3-Methoxyazetidin-1-yl)(2-((1-(pyridin-3-yl)ethyl)amino)thieno[3,2-d]pyrimidin-4-yl)methanone]: the Ratio at adenosine A2B receptor turned out to be 8.08. Moreover, the IC50 at adenosine A2B receptor was less than 10 nM; at adenosine A2A receptor, 50 to 100 nM; at adenosine A1 receptor, greater than 500 nM; at adenosine A3 receptor, greater than 500 nM. Besides, the hepatocyte CLint came out at 24.2 µL/min/1e6 cells in series [1] and 7.67 µL/min/1e6 cells in series [2].
In the case of `C[C@H](Nc1nc(C(=O)NCCO)c2sccc2n1)c1cccnc1` [Example Z145, (S)—N-(2-Hydroxyethyl)-2-((1-(pyridin-3-yl)ethyl)amino)thieno[3,2-d]pyrimidine-4-carboxamide], the IC50 on adenosine A2B receptor fell in the range of 10 to 50 nM; at adenosine A2A receptor, 100 to 500 nM. The hepatocyte CLint in series [1] worked out at 8.46 µL/min/1e6 cells; in series [2], 1.92 µL/min/1e6 cells.
Take `COc1cc(F)cc(CNc2nc(C(=O)N3CC(O)C3)c3sccc3n2)c1` [Example Z137, (2-((3-Fluoro-5-methoxybenzyl)amino)thieno[3,2-d]pyrimidin-4-yl)(3-hydroxyazetidin-1-yl)methanone]: the Ratio on adenosine A2B receptor was 19.91. For the same compound, the IC50 at adenosine A2B receptor was 10 to 50 nM; on adenosine A2A receptor it was 100 to 500 nM; against adenosine A1 receptor it was greater than 500 nM; on adenosine A3 receptor it was 10 to 50 nM. Further, the values for the hepatocyte CLint in series [1] and in series [2] were 66.8 µL/min/1e6 cells and 74.8 µL/min/1e6 cells, respectively.
On to `C[C@H](Nc1nc(C(=O)NC2CCC2)c2sccc2n1)c1ccccn1` [Example Z147, (S)—N-Cyclobutyl-2-((1-(pyridin-2-yl)ethyl)amino)thieno[3,2-d]pyrimidine-4-carboxamide], for which the Ratio at adenosine A2B receptor worked out at 2.82. Also, the IC50 at adenosine A2B receptor is less than 10 nM; on adenosine A2A receptor it was 10 to 50 nM; on adenosine A1 receptor, greater than 500 nM; on adenosine A3 receptor it was 100 to 500 nM. In addition, the hepatocyte CLint in series [1] amounted to 68.3 µL/min/1e6 cells; in series [2], 43.5 µL/min/1e6 cells.
Regarding `O=C(NCCO)c1nc(NCc2cc(F)cc(F)c2)nc2ccsc12` [Example Z169, 2-((3,5-Difluorobenzyl)amino)-N-(2-hydroxyethyl)thieno[3,2-d]pyrimidine-4-carboxamide], the Ratio on adenosine A2B receptor is recorded as 26.40. The IC50 was less than 10 nM on adenosine A2B receptor, 100 to 500 nM at adenosine A2A receptor, greater than 500 nM against adenosine A1 receptor and greater than 500 nM at adenosine A3 receptor. Further, the intrinsic clearance (hepatocyte CLint) amounted to 43.7 µL/min/1e6 cells in series [1] and 55.6 µL/min/1e6 cells in series [2].
Turning to `O=C(NC1CCC1)c1nc(NCc2cncc(F)c2)nc2ccsc12` [Example Z171, N-Cyclobutyl-2-(((5-fluoropyridin-3-yl)methyl)amino)thieno[3,2-d]pyrimidine-4-carboxamide], on adenosine A2B receptor, the Ratio came to 22.94. Further, the IC50 at adenosine A2B receptor is less than 10 nM; at adenosine A2A receptor, 50 to 100 nM; against adenosine A1 receptor, 100 to 500 nM; against adenosine A3 receptor, greater than 500 nM. Also, the hepatocyte CLint in series [1] is 91.4 µL/min/1e6 cells; in series [2] it was 51.4 µL/min/1e6 cells.
Take `C[C@H](Nc1nc(C(=O)N2CC(O)C2)c2sccc2n1)c1cccnc1` [Example Z138, (S)-(3-Hydroxyazetidin-1-yl)(2-((1-(pyridin-3-yl)ethyl)amino)thieno[3,2-d]pyrimidin-4-yl)methanone]: on adenosine A2B receptor, the Ratio was 14.05. Besides, the IC50 at adenosine A2B receptor is 10 to 50 nM; at adenosine A2A receptor it was 100 to 500 nM; at adenosine A1 receptor it was greater than 500 nM; on adenosine A3 receptor it was greater than 500 nM. Further, the results for the hepatocyte CLint in series [1] and in series [2] were 10.3 µL/min/1e6 cells and 1.14 µL/min/1e6 cells, respectively.
On to `COC1CN(C(=O)c2nc(N[C@@H](C)c3cncc(F)c3)nc3ccsc23)C1` [Example Z185, (S)-(2-((1-(5-Fluoropyridin-3-yl)ethyl)amino)thieno[3,2-d]pyrimidin-4-yl)(3-methoxyazetidin-1-yl)methanone], for which the Ratio at adenosine A2B receptor was 46.14. Besides, the IC50 is less than 10 nM at adenosine A2B receptor, 100 to 500 nM on adenosine A2A receptor, greater than 500 nM against adenosine A1 receptor and greater than 500 nM at adenosine A3 receptor. In addition, the hepatocyte CLint was 37 µL/min/1e6 cells in series [1] and 12 µL/min/1e6 cells in series [2].
Turning to `C[C@H](Nc1nc(C(=O)NC2CC(O)C2)c2sccc2n1)c1ccccn1` (stereo partly drawn) [Example Z158, N-((1s,3R)-3-Hydroxycyclobutyl)-2-(((S)-1-(pyridin-2-yl)ethyl)amino)thieno[3,2-d]pyrimidine-4-carboxamide], the Ratio at adenosine A2B receptor was found to be 9.39. Further, the hepatocyte CLint turned out to be 22.6 µL/min/1e6 cells in series [1] and 20.6 µL/min/1e6 cells in series [2].
As to `C[C@H](Nc1nc(C(=O)N2CCC(F)(F)C2)c2sccc2n1)c1cccnc1` [Example Z13, (S)-(3,3-Difluoropyrrolidin-1-yl)(2-((1-(pyridin-3-yl)ethyl)amino)thieno[3,2-d]pyrimidin-4-yl)methanone], the Ratio at adenosine A2B receptor was 3.93. Also, the IC50 on adenosine A2B receptor is 10 to 50 nM; on adenosine A2A receptor it was 100 to 500 nM; against adenosine A1 receptor, greater than 500 nM; on adenosine A3 receptor it was greater than 500 nM.
For `COc1cccc(CNC(=O)c2nc(N[C@@H](C)c3cccnc3)nc3ccsc23)n1` [Example Z73, (S)—N-((6-Methoxypyridin-2-yl)methyl)-2-((1-(pyridin-3-yl)ethyl)amino)thieno[3,2-d]pyrimidine-4-carboxamide], the Ratio at adenosine A2B receptor was 3.11. Besides, the IC50 on adenosine A2B receptor was 10 to 50 nM; at adenosine A2A receptor it was 50 to 100 nM; against adenosine A1 receptor, greater than 500 nM; on adenosine A3 receptor, 50 to 100 nM.
